Source: patent US7332480B2, “Compositions for the regulation of cytokine activity” (Yeda Research and Development Co. Ltd., priority 1992, dated 2008)

How the values were obtained:
[1] = tested on: experimental DTH reaction in mice; experiment: In vivo bioassay of inhibition of experimental DTH reactivity (oxazolone, ear swelling); design: key to effect on DTH (printed in the Dose column): “N.E.” indicates that no effect was observed at the tested dosage range of 0.000004-4 μg/gm mouse; conditions: for DTH: Table XXIIIC, CD1 mice
Protocol: Groups of inbred BALB/c (Jackson Laboratories, Bar Harbor, Me.) or of outbred CD1 (Weizmann Institute Animal Breeding Center, Rehovot, Israel) mice are sensitized on the shaved abdominal skin with 100 μl of 2% oxazolone (OX) in acetone/olive oil (4/1, v/v) applied topically. DTH sensitivity is elicited 5 days later as follows: mice are challenged with 20 μl of 0.5% OX (10 μl administered topically to each side of the ear) in acetone/olive oil. A constant area of the ear is measured immediately before challenge and 24 and 48 h later with a Mitutoyo engineer's micrometer. The individual measuring ear swelling is blinded to the identity of the groups of mice. The increment (Δ) of ear swelling is expressed as the mean in units of 10^−2 mm or 10^−4 inch (+SE) depending on the micrometer that is used. Percent inhibition is calculated as follows: […]
Mice are treated with LMWH again Example 5.1, injected the day before primary sensitization to OX. On the fifth day after sensitization to OX, the 10 mice are challenged to induce a DTH reaction, as described above.
The positive control is the DTH reaction elicited in immunized mice in the absence of treatment with LMWH. The negative control is the background swelling produced by the antigen in naive (non-immunized) mice. […]
BALB/c mice (at least 5 mice per group) were sensitized on the shaved abdomen with 3% 4-ethoxymethylene-2-phenyl oxazolone (OX; BDH-Chemicals, GB) in acetone/olive oil applied topically. DTH sensitivity was elicited 5 days later as follows. Mice were challenged with 0.5% OX in acetone/olive oil. The ear was measured immediately before challenge and 24 h later with Mitutoyo engineer's micrometer (Japan). The individual measuring the swelling of the ear was blinded to the identity of the groups of mice. To interfere with DTH response, the low molecular weight immuno-regulatory fractions, diluted in PBS, were administrated subcutaneously into the back of the treated mice at the indicated time schedules and concentrations. Treated mice were inspected during and after (>2 months) the treatment and no major side-effects were observed clinically.
In particular, CD1 mice (available from the Weizmann Institute Animal Breeding Center, Rehovot, Israel), 4-12 mice per group were treated as described in Section 5.2 or 6.8.

IDDM of NOD mice = experiment: Insulin dependent diabetes mellitus (IDDM) of NOD mice; assay type: in vivo; conditions: H-9392 30 ng, glucosamine 10,000 ng; all the control mice had died (FIG. 41A)
[2] = tested on: mortality after irradiation; experiment: Radioprotective effects in gamma-irradiated mice; assay type: in vivo, BALB/c mice; conditions: 750 rads, three administrations; for activity in suppressing mortality after irradiation: 300 ng H-9392, 1 μg glucosamine
Protocol: Groups of female BALB/c mice, 8 weeks old, 5-10 mice per group, were injected subcutaneously with either saline (0.1 ml, control), H-9392 (30 ng/mouse), or glucosamine (10,000 ng/mouse) 1 day before irradiation, and weekly thereafter until termination of the experiment on day 30. All the mice were irradiated to a dose of 700 rads using a ^60Co gamma radiation source.
The mortality within the different groups of mice was then scored over a 30 day period. […] The group of mice which had been injected with glucosamine also fared better than the control group, showing a 20% mortality rate in the same period.
In a separate experiment, groups of BALB/c mice (5 mice to a group) were likewise exposed to 750 rads of gamma-rays, except that these groups of mice were treated with test substances (saline at 0.1 ml per mouse; H-9392 at 0.3, 3, 30 and 300 ng/mouse; and glucosamine at 1, 10 and 100 μg/mouse) on the day before irradiation, on the sixth day after irradiation, and once again on the thirteenth day after irradiation only. All treatment ceased after the third and last administration.

[3] = tested on: secretion of active TNF-α by activated human CD4+ T cells; experiment: Bioassay of TNF-α activity using human CD4+ T cells derived from PBLs (human PBL bioassay); assay type: cell-based; conditions: Table XXIII; conc range of 1 μg/ml-0.01 pg/ml; inconsistent = same result not obtained for all three bioassays
Excerpt: Non adherent cells were eluted and washed.
Nophar, Y. et al. J. Immunol. (1988) 140 (10):3456-3460.

adjuvant arthritis = experiment: Adjuvant arthritis (AA) in rats; assay type: in vivo, Lewis rats; conditions: for course of AA after treatment was ended: treatment from day 12, dexamethasone phosphate daily or weekly, disaccharide weekly; for severity of the AA score at 30 days post-induction: weekly s.c. from day 12, dexamethasone phosphate 100 μg or disaccharide 120 ng per rat (FIG. 38G)
[4] = tested on: LPS-induced inflammation of the cornea; experiment: LPS-induced inflammation of the rat cornea; assay type: in vivo, Lewis rats
Protocol: LPS-induced inflammation of the cornea is TNF dependent, as shown by the work of Vanderhagen, C. and co-workers in the Netherlands, “Kinetics of Intraocular TNF and IL-6 in Endotoxin-Induced Uveitis in the Rat,” submitted for publication. Using a 30-gauge needle, LPS (5 ng) was injected into the cornea of Lewis rats. After one day, separate groups of rats, 2 to a group (or 4 eyes to a group) were then injected subcutaneously with phosphate-buffered saline (0.05 ml) or H-1020 (at a dose of either 50 ng/rat or 200 ng/rat). The effects, if any, were scored as follows:
in which the sum of the points is used as the total score.

skin graft rejection = experiment: Skin allograft rejection in mice; assay type: in vivo, BALB/c mice; conditions: 300 ng/mouse s.c. one day before grafting and weekly thereafter
Protocol: The effect of H-9392 was also tested in skin graft rejection experiments in mice. In particular, skin grafts from C57BL/6 donor mice (H-2^b) were applied to recipient BALB/c mice (H-2^d) according to the method of Baharav, E. et al. J. Immunol. Methods (1986) 90:143-144. The number of days to rejection was measured by the sloughing of the graft. The number of days to rejection was determined for a control group (injected with saline only, 0.1 ml), and test groups that received 3 ng or 300 ng of H-9392 by subcutaneous injection one day before grafting and weekly thereafter. The results, which are graphically represented in FIGS. 40 and 40A, reveal that the 3 ng/mouse dose delayed the level of skin graft rejection at 50% by 5 days!

[5] = tested on: experimental allergic asthma; experiment: Experimental allergic bronchial asthma in rats; assay type: in vivo, Brown Norway rats; conditions: 30 ng s.c. on day 30, challenge on day 35; saline animals Grade 3 or 4
Protocol: Experimental allergic bronchial asthma is an immediate type hypersensitivity reaction in rats which have been immunized and then rechallenged by inhalation of the priming antigen in a aerosolized solution. (Edelman, et al., Am. Rev. Resp. Dis. (1988) 137:1033-37). The etiology and pathophysiology of this experimental disease closely parallel the naturally occurring human counterpart. […] V.), on day zero. Subsequent challenges consisted of a 5 minute period of inhalation of OVA (1 mg/ml solution) aerosolized in a Devilbiss Nebulizer operated at an airflow of 6 L/min. Respiratory Distress (RD) responses were scored as Grade 0, no signs of distress; Grade 1, tachypnea; Grade 2, moderate labored breathing; Grade 3 severe labored breathing with mouth open; Grade 4, loss of consciousness and muscular tone. Sixteen days following primary immunization all animals were exposed to an initial aerosolized challenge to establish the positive control. The animals were coded so that the observer was ignorant of the subject animal's history. […] On day thirty, the animals were divided into 2 groups and given either saline (control Group A) or 30 ng of substance H-9392, s.c., (Group B) and challenged on day 35 as above.

N[C@@H](C=O)[C@@H](O)[C@H](O)[C@H](O)CO [GlcN, 2-amino-2-deoxy-D-glucose, reference compound]
DTH ([1]; 0.000012 μg/gm s.c., control 19.7 ± 1.2): 5 ± 0.7 10^−2 mm | DTH ([1]; 0.4 μg/gm s.c., control 19.7 ± 1.2): 2.3 ± 0.9 10^−2 mm | mice died by age 5 months (IDDM of NOD mice): about half | activity in suppressing mortality after irradiation [2]: moderate activity

O=C(O)C1=C[C@H](O)[C@@H](OS(=O)(=O)O)[C@H](O[C@H]2[C@H](O)[C@@H](NS(=O)(=O)O)C(O)O[C@@H]2COS(=O)(=O)O)O1 (stereo partly drawn) [H-9267, 2-O-sulfate-4-deoxy-4-en-iduronic acid-(α-1,4)-2-deoxy-2-N-sulfate-6-O-sulfateglucosamine]
“R” value ([1]; Table XXIIIA, inhibition of DTH, s.c.): 1.60 × 10^5 % × (μg/gm)^−1 | Bioassay of TNF Activity [3]: Inconsistent

C[C@@H]1C[C@H]2[C@@H]3CCC4=CC(=O)C=C[C@]4(C)[C@@]3(F)[C@@H](O)C[C@]2(C)[C@@]1(O)C(=O)COP(=O)(O)O [dexamethasone phosphate, reference compound]
course of AA after treatment was ended (adjuvant arthritis): suffered a relapse | severity of the AA score at 30 days post-induction (adjuvant arthritis): only a moderate reduction in the severity of the AA score

O=C(O)C1=C[C@H](O)[C@@H](O)[C@H](O[C@H]2[C@H](O)[C@@H](NS(=O)(=O)O)C(O)O[C@@H]2COS(=O)(=O)O)O1 (stereo partly drawn) [H-1020, 4-deoxy-4-en-iduronic acid-(α-1,4)-2-deoxy-2-N-sulfate-6-O-sulfateglucosamine]
effect on local LPS-induced inflammation relative to control ([4]; 50 ng/rat s.c. (FIG. 39)): effective to suppress | effect on local LPS-induced inflammation relative to control ([4]; 200 ng/rat s.c. (FIG. 39)): failed to provide a significant effect

CC(=O)N[C@H]1C(O)O[C@H](CO)[C@@H](O[C@@H]2OC(C(=O)O)=C[C@H](O)[C@H]2OS(=O)(=O)O)[C@@H]1O (stereo partly drawn) [H-8767, 2-O-sulfate-4-deoxy-4-en-iduronic acid-(α-1,4)-2-deoxy-2-N-acetylglucosamine]
“R” value ([1]; Table XXIIIA, no effect, zero assigned): 0 % × (μg/gm)^−1 | effect on DTH (printed in the Dose column) ([1]; Table XXIIIA, tested dosage range of 0.000004-4 μg/gm mouse s.c.): N.E. | Bioassay of TNF Activity [3]: Inconsistent

N[C@H]1C(O)O[C@H](CO)[C@H](O)[C@@H]1O (stereo partly drawn) [GalN, D-Galactosamine, reference compound]
DTH ([1]; 0.00004 μg/gm s.c., control 18.9 ± 0.7): 8.9 ± 0.6 10^−2 mm | DTH ([1]; 0.12 μg/gm s.c., control 18.9 ± 0.7): 6.5 ± 0.7 10^−2 mm | effect on AA (adjuvant arthritis; different dosages, s.c. weekly (FIG. 38C)): inhibitory effects but to a much lesser degree

O=C(O)C1=C[C@H](O)[C@@H](OS(=O)(=O)O)[C@H](O[C@H]2[C@H](O)[C@@H](NS(=O)(=O)O)C(O)O[C@@H]2CO)O1 (stereo partly drawn) [H-9392, 2-O-Sulfate-4-deoxy-4-en-iduronic acid-(α-1,4)-2-deoxy-2-N-sulfateglucosamine]
course of AA after treatment was ended (adjuvant arthritis): continued to exhibit improved AA scores | effect on severity of AA (adjuvant arthritis; weekly or daily, beginning at day 0 or at day 12 (FIGS. 38D, 38E)): positive suppression of the severity of AA in all cases | severity of the AA score at 30 days post-induction (adjuvant arthritis): almost complete suppression | mice died by age 5 months (IDDM of NOD mice): none | Bioassay of TNF Activity [3]: Inconsistent | mice died by the thirtieth day after irradiation ([2]; 30 ng/mouse, 5 mice to a group): one | activity in suppressing mortality after irradiation [2]: moderate activity | difference at 50% rejection relative to control (skin graft rejection): failed to produce a significant difference | respiratory distress after secondary challenge [5]: mere tachypnea
